Experimental data from patent publication US9302999B2, “Substituted triazoles as herbicides” (E. I. DU PONT DE NEMOURS AND COMPANY, priority 2012, dated 2016).

Assays:
Assay type in all cases: in vivo
[1] = tested on: nutsedge, yellow (yellow nutsedge, Cyperus esculentus); test: Test C pre-/postemergence: nutsedge, yellow
How it was run: (§1)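 Visual injury scored 0–100 (100 = complete control) against untreated controls after 13–15 greenhouse days. Surfactant-containing solvent formulations applied either to soil after sowing (loam/sand) or over 1- to 4-leaf plants, 2–18 cm tall.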

[2] = tested on: foxtail, giant (giant foxtail, Setaria faberii); test: Test C pre-/postemergence: foxtail, giant
How it was run: as §1

[3] = tested on: pigweed (Amaranthus retroflexus); test: Test C pre-/postemergence: pigweed
How it was run: as §1

wild oat (Avena fatua) = test: Test C pre-/postemergence: wild oat
How it was run: as §1

[4] = tested on: nightshade (eastern black nightshade, Solanum ptycanthum); test: Test C pre-/postemergence: nightshade; settings: Preemergence
How it was run: as §1

[5] = tested on: foxtail, giant (giant foxtail, Setaria faberii); test: Test A pre-/postemergence: foxtail, giant; settings: for Foxtail, Giant plant response rating: Postemergence; for Plant response rating, Foxtail, Giant: Preemergence
How it was run: (§2)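 Visual 0–100 injury ratings (0 no effect, 100 complete control) taken about ten days after treatment, relative to untreated controls. Preemergence treatment was a directed soil spray; postemergence plants were 2–10 cm tall at one- to two-leaf stage. Soil: loam/sand blend.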

[6] = tested on: crabgrass, large (large crabgrass, Digitaria sanguinalis); test: Test A pre-/postemergence: crabgrass, large; settings: for Crabgrass, Large plant response rating: Postemergence; for Plant response rating, Crabgrass, Large: Preemergence
How it was run: as §2

[7] = tested on: pigweed (Amaranthus retroflexus); test: Test A pre-/postemergence: pigweed; settings: for Pigweed plant response rating: Postemergence; for Plant response rating, Pigweed: Preemergence
How it was run: as §2

soybean (Glycine max) = test: Test C pre-/postemergence: soybean
How it was run: as §1

[8] = tested on: wheat (Triticum aestivum); test: Test A pre-/postemergence: wheat; settings: for Wheat plant response rating: Postemergence; for Plant response rating, Wheat: Preemergence
How it was run: as §2

[9] = Postemergence, 31 g ai/ha, scale 0 to 100 (0 no effect, 100 complete control)
[10] = Postemergence, 62 g ai/ha, scale 0 to 100 (0 no effect, 100 complete control)
[11] = Postemergence, 125 g ai/ha, scale 0 to 100, 0 no effect, 100 complete control
[12] = Postemergence, 250 g ai/ha, scale 0 to 100
[13] = Preemergence, 31 g ai/ha, scale of 0 to 100, 0 is no effect, 100 is complete control
[14] = Preemergence, 62 g ai/ha, scale of 0 to 100, 0 is no effect, 100 is complete control
[15] = Preemergence, 125 g ai/ha, scale 0 to 100, 0 no effect, 100 complete control
[16] = Preemergence, 250 g ai/ha, scale 0 to 100, 0 no effect, 100 complete control
[17] = 31 g ai/ha, scale of 0 to 100, 0 is no effect, 100 is complete control
[18] = 62 g ai/ha, scale of 0 to 100, 0 is no effect, 100 is complete control
[19] = 125 g ai/ha, scale 0 to 100, 0 no effect, 100 complete control
[20] = 250 g ai/ha, scale 0 to 100, 0 no effect, 100 complete control
[21] = 125 g ai/ha, 0 to 100 scale, 0 is no effect, 100 is complete control
[22] = 500 g ai/ha, visual rating on 0 to 100 scale (0 no effect, 100 complete control), approximately ten days
[23] = 125 g ai/ha, 0 to 100 scale (0 no effect, 100 complete control)
[24] = 500 g ai/ha, 0 to 100 scale, 0 is no effect, 100 is complete control

SMILES: Cc1nn(-c2ccc(C(F)(F)F)cn2)nc1Oc1ccnc(C(F)(F)F)c1 [Compound 23]
- Plant response rating, Nutsedge, Yellow [1, 9]: 10
- Plant response rating, Nutsedge, Yellow [1, 10]: 10
- Plant response rating, Nutsedge, Yellow [1, 11]: 10
- Plant response rating, Nutsedge, Yellow [1, 12]: 10
- Plant response rating, Nutsedge, Yellow [1, 13]: 5
- Plant response rating, Nutsedge, Yellow [1, 14]: 10
- Plant response rating, Nutsedge, Yellow [1, 15]: 35
- Plant response rating, Nutsedge, Yellow [1, 16]: 55
- Plant response rating, Foxtail, Giant [2, 9]: 15
- Plant response rating, Foxtail, Giant [2, 10]: 15
- Plant response rating, Foxtail, Giant [2, 11]: 15
- Plant response rating, Foxtail, Giant [2, 12]: 25
- Plant response rating, Foxtail, Giant [2, 13]: 98
- Plant response rating, Foxtail, Giant [2, 14]: 100
- Plant response rating, Foxtail, Giant [2, 15]: 100
- Plant response rating, Foxtail, Giant [2, 16]: 100
- Plant response rating, Pigweed [3, 9]: 70
- Plant response rating, Pigweed [3, 11]: 80
- Plant response rating, Pigweed [3, 12]: 95
- Plant response rating, Pigweed [3, 13]: 100
- Plant response rating, Pigweed [3, 14]: 100
- Plant response rating, Pigweed [3, 15]: 100
- Plant response rating, Pigweed [3, 16]: 100
- Plant response rating, Oat, Wild (wild oat (Avena fatua); [9]): 5
- Plant response rating, Oat, Wild (wild oat (Avena fatua); [10]): 10
- Plant response rating, Oat, Wild (wild oat (Avena fatua); [11]): 35
- Plant response rating, Oat, Wild (wild oat (Avena fatua); [12]): 35
- Plant response rating, Oat, Wild (wild oat (Avena fatua); [13]): 45
- Plant response rating, Oat, Wild (wild oat (Avena fatua); [14]): 80
- Plant response rating, Oat, Wild (wild oat (Avena fatua); [15]): 80
- Plant response rating, Oat, Wild (wild oat (Avena fatua); [16]): 100
- Plant response rating, Nightshade [4, 17]: 50
- Plant response rating, Nightshade [4, 18]: 90
- Plant response rating, Nightshade [4, 19]: 95
- Plant response rating, Nightshade [4, 20]: 98
- Foxtail, Giant plant response rating [5, 21]: 90
- Foxtail, Giant plant response rating [5, 22]: 90
- Plant response rating, Foxtail, Giant [5, 23]: 100
- Plant response rating, Foxtail, Giant [5, 24]: 100
- Crabgrass, Large plant response rating [6, 21]: 90
- Crabgrass, Large plant response rating [6, 22]: 90
- Plant response rating, Crabgrass, Large [6, 23]: 100
- Plant response rating, Crabgrass, Large [6, 24]: 100
- Pigweed plant response rating [7, 21]: 100
- Pigweed plant response rating [7, 22]: 100
- Plant response rating, Pigweed [7, 23]: 100
- Plant response rating, Pigweed [7, 24]: 100
- Plant response rating, Soybean (soybean (Glycine max); [9]): 30
- Plant response rating, Soybean (soybean (Glycine max); [10]): 55
- Plant response rating, Soybean (soybean (Glycine max); [11]): 55
- Plant response rating, Soybean (soybean (Glycine max); [12]): 65
- Plant response rating, Soybean (soybean (Glycine max); [13]): 0
- Plant response rating, Soybean (soybean (Glycine max); [14]): 5
- Plant response rating, Soybean (soybean (Glycine max); [15]): 10
- Plant response rating, Soybean (soybean (Glycine max); [16]): 50
- Wheat plant response rating [8, 21]: 20
- Wheat plant response rating [8, 22]: 50
- Plant response rating, Wheat [8, 23]: 0
- Plant response rating, Wheat [8, 24]: 70

SMILES: Fc1ccc(-n2nc(Cc3ccnc(C(F)(F)F)c3)c(OC(F)F)n2)cc1 [Compound 25]
- Plant response rating, Nutsedge, Yellow [1, 9]: 5
- Plant response rating, Nutsedge, Yellow [1, 10]: 5
- Plant response rating, Nutsedge, Yellow [1, 11]: 10
- Plant response rating, Nutsedge, Yellow [1, 12]: 10
- Plant response rating, Nutsedge, Yellow [1, 13]: 0
- Plant response rating, Nutsedge, Yellow [1, 14]: 0
- Plant response rating, Nutsedge, Yellow [1, 15]: 0
- Plant response rating, Nutsedge, Yellow [1, 16]: 0
- Plant response rating, Foxtail, Giant [2, 9]: 35
- Plant response rating, Foxtail, Giant [2, 10]: 45
- Plant response rating, Foxtail, Giant [2, 11]: 55
- Plant response rating, Foxtail, Giant [2, 12]: 60
- Plant response rating, Foxtail, Giant [2, 13]: 98
- Plant response rating, Foxtail, Giant [2, 14]: 100
- Plant response rating, Foxtail, Giant [2, 15]: 100
- Plant response rating, Foxtail, Giant [2, 16]: 100
- Plant response rating, Pigweed [3, 9]: 85
- Plant response rating, Pigweed [3, 10]: 95
- Plant response rating, Pigweed [3, 11]: 95
- Plant response rating, Pigweed [3, 12]: 98
- Plant response rating, Pigweed [3, 13]: 100
- Plant response rating, Pigweed [3, 14]: 100
- Plant response rating, Pigweed [3, 15]: 100
- Plant response rating, Pigweed [3, 16]: 100
- Plant response rating, Oat, Wild (wild oat (Avena fatua); [9]): 5
- Plant response rating, Oat, Wild (wild oat (Avena fatua); [10]): 5
- Plant response rating, Oat, Wild (wild oat (Avena fatua); [11]): 30
- Plant response rating, Oat, Wild (wild oat (Avena fatua); [12]): 30
- Plant response rating, Oat, Wild (wild oat (Avena fatua); [13]): 20
- Plant response rating, Oat, Wild (wild oat (Avena fatua); [14]): 30
- Plant response rating, Oat, Wild (wild oat (Avena fatua); [15]): 80
- Plant response rating, Oat, Wild (wild oat (Avena fatua); [16]): 90
- Plant response rating, Nightshade [4, 17]: 10
- Plant response rating, Nightshade [4, 18]: 45
- Plant response rating, Nightshade [4, 19]: 95
- Plant response rating, Nightshade [4, 20]: 95
- Foxtail, Giant plant response rating [5, 21]: 90
- Foxtail, Giant plant response rating [5, 22]: 90
- Plant response rating, Foxtail, Giant [5, 23]: 100
- Plant response rating, Foxtail, Giant [5, 24]: 100
- Crabgrass, Large plant response rating [6, 21]: 90
- Crabgrass, Large plant response rating [6, 22]: 90
- Plant response rating, Crabgrass, Large [6, 23]: 90
- Plant response rating, Crabgrass, Large [6, 24]: 100
- Pigweed plant response rating [7, 21]: 100
- Pigweed plant response rating [7, 22]: 100
- Plant response rating, Pigweed [7, 23]: 100
- Plant response rating, Pigweed [7, 24]: 100
- Plant response rating, Soybean (soybean (Glycine max); [9]): 25
- Plant response rating, Soybean (soybean (Glycine max); [10]): 30
- Plant response rating, Soybean (soybean (Glycine max); [11]): 30
- Plant response rating, Soybean (soybean (Glycine max); [12]): 30
- Plant response rating, Soybean (soybean (Glycine max); [13]): 0
- Plant response rating, Soybean (soybean (Glycine max); [14]): 0
- Plant response rating, Soybean (soybean (Glycine max); [15]): 0
- Plant response rating, Soybean (soybean (Glycine max); [16]): 10
- Wheat plant response rating [8, 21]: 40
- Wheat plant response rating [8, 22]: 60
- Plant response rating, Wheat [8, 23]: 20
- Plant response rating, Wheat [8, 24]: 80

SMILES: FC(F)Oc1nn(-c2ccc(C(F)(F)F)cc2)nc1Cc1ccnc(C(F)(F)F)c1 [Compound 26]
- Plant response rating, Nutsedge, Yellow [1, 9]: 10
- Plant response rating, Nutsedge, Yellow [1, 10]: 10
- Plant response rating, Nutsedge, Yellow [1, 11]: 15
- Plant response rating, Nutsedge, Yellow [1, 12]: 15
- Plant response rating, Nutsedge, Yellow [1, 13]: 0
- Plant response rating, Nutsedge, Yellow [1, 14]: 0
- Plant response rating, Nutsedge, Yellow [1, 15]: 0
- Plant response rating, Nutsedge, Yellow [1, 16]: 0
- Plant response rating, Foxtail, Giant [2, 9]: 25
- Plant response rating, Foxtail, Giant [2, 10]: 30
- Plant response rating, Foxtail, Giant [2, 11]: 45
- Plant response rating, Foxtail, Giant [2, 12]: 60
- Plant response rating, Foxtail, Giant [2, 13]: 98
- Plant response rating, Foxtail, Giant [2, 14]: 100
- Plant response rating, Foxtail, Giant [2, 15]: 100
- Plant response rating, Foxtail, Giant [2, 16]: 100
- Plant response rating, Pigweed [3, 10]: 60
- Plant response rating, Pigweed [3, 11]: 80
- Plant response rating, Pigweed [3, 12]: 98
- Plant response rating, Pigweed [3, 13]: 100
- Plant response rating, Pigweed [3, 14]: 100
- Plant response rating, Pigweed [3, 15]: 100
- Plant response rating, Pigweed [3, 16]: 100
- Plant response rating, Oat, Wild (wild oat (Avena fatua); [9]): 10
- Plant response rating, Oat, Wild (wild oat (Avena fatua); [10]): 30
- Plant response rating, Oat, Wild (wild oat (Avena fatua); [11]): 40
- Plant response rating, Oat, Wild (wild oat (Avena fatua); [12]): 85
- Plant response rating, Oat, Wild (wild oat (Avena fatua); [13]): 45
- Plant response rating, Oat, Wild (wild oat (Avena fatua); [14]): 70
- Plant response rating, Oat, Wild (wild oat (Avena fatua); [15]): 70
- Plant response rating, Oat, Wild (wild oat (Avena fatua); [16]): 95
- Plant response rating, Nightshade [4, 17]: 55
- Plant response rating, Nightshade [4, 18]: 90
- Plant response rating, Nightshade [4, 19]: 98
- Plant response rating, Nightshade [4, 20]: 98
- Foxtail, Giant plant response rating [5, 21]: 90
- Foxtail, Giant plant response rating [5, 22]: 90
- Plant response rating, Foxtail, Giant [5, 23]: 100
- Plant response rating, Foxtail, Giant [5, 24]: 100
- Crabgrass, Large plant response rating [6, 21]: 90
- Crabgrass, Large plant response rating [6, 22]: 90
- Plant response rating, Crabgrass, Large [6, 23]: 100
- Plant response rating, Crabgrass, Large [6, 24]: 100
- Pigweed plant response rating [7, 21]: 100
- Pigweed plant response rating [7, 22]: 100
- Plant response rating, Pigweed [7, 23]: 100
- Plant response rating, Pigweed [7, 24]: 100
- Plant response rating, Soybean (soybean (Glycine max); [9]): 35
- Plant response rating, Soybean (soybean (Glycine max); [10]): 40
- Plant response rating, Soybean (soybean (Glycine max); [11]): 50
- Plant response rating, Soybean (soybean (Glycine max); [12]): 55
- Plant response rating, Soybean (soybean (Glycine max); [13]): 0
- Plant response rating, Soybean (soybean (Glycine max); [14]): 5
- Plant response rating, Soybean (soybean (Glycine max); [15]): 5
- Plant response rating, Soybean (soybean (Glycine max); [16]): 15
- Wheat plant response rating [8, 21]: 60
- Wheat plant response rating [8, 22]: 80
- Plant response rating, Wheat [8, 23]: 50
- Plant response rating, Wheat [8, 24]: 80
